Tests used:
[1] = molecular target: T1, SGLT-2 (Homo sapiens, UniProt P31639); test: [14C]-AMG absorption in stable SGLT2 expressing Flp-in CHO cells (SGLT-2 activity screening assay); assay type: cell-based; details: 14C-AMG uptake, 37° C. 1 h, 1% DMSO
T1 sequence (P31639 1-672): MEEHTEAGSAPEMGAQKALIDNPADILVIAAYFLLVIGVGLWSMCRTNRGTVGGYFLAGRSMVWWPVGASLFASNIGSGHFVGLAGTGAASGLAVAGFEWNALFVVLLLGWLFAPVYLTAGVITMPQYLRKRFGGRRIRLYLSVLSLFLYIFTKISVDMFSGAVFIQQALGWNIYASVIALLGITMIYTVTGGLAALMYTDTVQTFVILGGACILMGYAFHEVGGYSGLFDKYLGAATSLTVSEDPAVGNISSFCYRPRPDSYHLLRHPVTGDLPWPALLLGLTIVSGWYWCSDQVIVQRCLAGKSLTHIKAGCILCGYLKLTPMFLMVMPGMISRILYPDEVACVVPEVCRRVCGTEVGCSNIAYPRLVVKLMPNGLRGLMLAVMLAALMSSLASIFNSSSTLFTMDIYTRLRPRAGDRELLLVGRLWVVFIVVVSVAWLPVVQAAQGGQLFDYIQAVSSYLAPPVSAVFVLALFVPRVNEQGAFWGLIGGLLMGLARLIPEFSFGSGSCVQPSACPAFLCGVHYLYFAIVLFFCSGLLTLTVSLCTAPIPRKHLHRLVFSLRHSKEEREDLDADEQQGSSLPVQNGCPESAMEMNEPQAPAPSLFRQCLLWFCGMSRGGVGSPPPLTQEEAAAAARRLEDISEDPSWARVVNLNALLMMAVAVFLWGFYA
From the text: (§1) Example 1: [^14C]-AMG Absorption in Stable SGLT1 and SGLT2 Expressing Flp-in CHO Cells (SGLT-1 and SGLT-2 Activity Screening Assay)
(§2) SGLT-1 and SGLT-2 cDNA clones were purchased from OriGene. After sequencing verification, the expression vectors were constructed based on pcDNA5/FRT using conventional molecular biology method. The expression vector was transfected into Flp-in CHO cells using Lipofectamin 2000. The transfected cells were subject hygromycin selection. The single clones of cells were selected by serial dilutions 4-5 weeks after transfection. The expression of SGLT-1 ? SGLT-2 were confirmed by RT-PCR and functional assay and cell line with strong signal was selected for subsequent study.
(§3) Culture of stable SGLT-1 and SGLT-2 expressing Flp-in CHO cell line: the culture media contain F12 medium (Invitrogen), 500 μg/ml hygromycin (Calbiochem) and 10% FBS (Invitrogen). Upon 80% confluency, the cells in the T75 flask were washed three times with PBS (Invitrogen), and 5 mL of Trpsin-EDTA solution (Invitrogen) was then added. The flask was gently rotated so that all the cells were submerged in the digestion solution. After the cells detach, 10 mL of culture medium was added and single cell suspension was prepared by pipetting up and down. The cell concentration was adjusted to 3×10^5/mL, 100 μL/well was added onto clear bottom 96-well plate (Corning).
(§4) The cells were ready for absorption assay once they attached after overnight culture. 12 h after cell plating, the cells were washed once with 150 μL/well absorption solution KRH-NMG (120 mM NMG, 4.7 mM KCl, 1.2 mM MgCl2, 2.2 mM CaCl2, 10 mM HEPES, pH 7.4 1 mM Tris). The solution was then removed from the well. 2.5 μCi/mL ^14C labeled AMG (PerkinElmer) Buffer KRH-Na+ (120 mM NaCl, 4.7 mM KCl, 1.2 mM MgCl2, 2.2 mM CaCl2, 10 mM HEPES, pH 7.4 1 mM Tris) was added at […] after washing with Buffer KRH-Na+ and KRH-NMG. The corresponding compound I was immediately added at 5 μL/well, ensuring the concentration of Dimethyl Sulfoxide was 1% (v/v). The plate was subsequently incubated at 37° C. for 1 h, after which 150 μL of ice cold wash buffer (120 mM NaCl, 4.7 mM KCl, 1.2 mM MgCl2, 2.2 mM CaCl2, 10 mM HEPES, 0.5 mM phlorizin, pH 7.4 1 mM Tris) was immediately added to terminate the reaction. Each well was washed three times with wash buffer and finally the solution was removed. Caution was taken to avoid cell detachment during the procedure. 20 μL/well of Lysis Buffer (0.1 mM NaOH) was added, the plate was vortexed at 900 rpm for 5 min. 80 μL/well of scintillation solution Microsint40 was added, and vortexed at 900 rpm for 5 min. The radioactivity was assayed using MicroBeta Trilux (PerkinElmer). The data was analyzed and IC50 of the compounds was calculated using XL-fit software.

[2] = molecular target: T2, SGLT-1 (Homo sapiens, UniProt P13866); test: [14C]-AMG absorption in stable SGLT1 expressing Flp-in CHO cells (SGLT-1 activity screening assay); assay type: cell-based; details: 14C-AMG uptake, 37° C. 1 h, 1% DMSO
T2 sequence (P13866 1-664): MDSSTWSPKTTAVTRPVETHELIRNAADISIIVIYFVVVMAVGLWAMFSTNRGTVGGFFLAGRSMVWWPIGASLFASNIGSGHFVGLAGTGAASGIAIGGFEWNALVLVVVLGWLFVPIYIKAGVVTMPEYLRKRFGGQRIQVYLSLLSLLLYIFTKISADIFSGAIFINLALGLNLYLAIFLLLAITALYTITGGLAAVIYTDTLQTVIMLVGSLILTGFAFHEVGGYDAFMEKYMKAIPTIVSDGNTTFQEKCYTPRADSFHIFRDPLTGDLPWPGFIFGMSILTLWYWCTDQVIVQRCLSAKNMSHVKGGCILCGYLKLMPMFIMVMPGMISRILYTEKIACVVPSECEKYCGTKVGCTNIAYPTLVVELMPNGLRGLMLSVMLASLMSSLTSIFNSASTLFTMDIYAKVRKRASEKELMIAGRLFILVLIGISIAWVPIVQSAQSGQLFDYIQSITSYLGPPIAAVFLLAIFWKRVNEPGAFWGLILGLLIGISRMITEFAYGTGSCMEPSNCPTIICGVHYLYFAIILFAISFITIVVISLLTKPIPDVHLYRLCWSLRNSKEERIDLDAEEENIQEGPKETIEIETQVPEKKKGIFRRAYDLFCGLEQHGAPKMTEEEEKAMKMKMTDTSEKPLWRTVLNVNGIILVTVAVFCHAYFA
From the text: as §1, §2, §3, §4

SMILES | IC50 [1] [nM] | IC50 [2] [nM]
OC[C@H]1O[C@@H](c2ccc(Cl)c(Cc3ccc(OCC4Cc5ccccc5O4)c(F)c3)c2)[C@H](O)[C@@H](O)[C@@H]1O (stereo partly drawn) [Compound I-12, (2S,3R,4R,5S,6R)-2-(4-chloro-3-(4-((2,3-dihydrobenzofuran-2-yl)methoxy)-3-fluorobenzyl)phenyl)-6-(hydroxymethyl)tetrahydro-2H-pyran-3,4,5-triol] | 11 | 1070
OC[C@H]1O[C@@H](c2ccc(Cl)c(Cc3ccc(OCC4Cc5cccc(F)c5O4)cc3)c2)[C@H](O)[C@@H](O)[C@@H]1O (stereo partly drawn) [Compound I-34, (2S,3R,4R,5S,6R)-2-(4-chloro-3-(4-((7-fluoro-2,3-dihydrobenzofuran-2-yl)methoxy)benzyl)phenyl)-6-(hydroxymethyl)tetrahydro-2H-pyran-3,4,5-triol] | 4.5 | 141
N#Cc1ccc([C@@H]2O[C@H](CO)[C@@H](O)[C@H](O)[C@H]2O)cc1Cc1ccc(OCC2Cc3ccccc3O2)cc1 (stereo partly drawn) [Compound I-28, 2-(4-((2,3-dihydrobenzofuran-2-yl)methoxy)benzyl)-4-((2S,3R,4R,5S,6R)-3,4,5-trihydroxy-6-(hydroxymethyl)tetrahydro-2H-pyran-2-yl)benzonitrile] | > 2000 | 41400
OC[C@H]1O[C@@H](c2ccc(Cl)c(Cc3ccc(OCc4cc5c(F)cccc5o4)cc3)c2)[C@H](O)[C@@H](O)[C@@H]1O [Compound I-7, (2S,3R,4R,5S,6R)-2-(4-chloro-3-(4-((4-fluorobenzofuran-2-yl)methoxy)benzyl)phenyl)-6-(hydroxymethyl)tetrahydro-2H-pyran-3,4,5-triol] | 14 | 444
OC[C@H]1O[C@@H](c2ccc(Cl)c(Cc3ccc(OCc4cc5cccc(F)c5o4)cc3)c2)[C@H](O)[C@@H](O)[C@@H]1O [Compound I-10, (2S,3R,4R,5S,6R)-2-(4-chloro-3-(4-((7-fluorobenzofuran-2-yl)methoxy)benzyl)phenyl)-6-(hydroxymethyl)tetrahydro-2H-pyran-3,4,5-triol] | 12 | 444
Cc1ccc([C@@H]2O[C@H](CO)[C@@H](O)[C@H](O)[C@H]2O)cc1Cc1ccc(-c2ccc(F)cc2)s1 [B, Canagliflozin, reference compound] | 4.6 | 287
COc1ccc([C@@H]2O[C@H](CO)[C@@H](O)[C@H](O)[C@H]2O)cc1Cc1ccc(OCc2cc3ccccc3o2)cc1 [Compound I-5, (2S,3R,4R,5S,6R)-2-(3-(4-(benzofuran-2-ylmethoxy)benzyl)-4-methoxyphenyl)-6-(hydroxymethyl)tetrahydro-2H-pyran-3,4,5-triol] | 18 | 1510
OC[C@H]1O[C@@H](c2ccc(Cl)c(Cc3ccc(OCC4Cc5c(F)cccc5O4)cc3)c2)[C@H](O)[C@@H](O)[C@@H]1O (stereo partly drawn) [Compound I-31, (2S,3R,4R,5S,6R)-2-(4-chloro-3-(4-((4-fluoro-2,3-dihydrobenzofuran-2-yl)methoxy)benzyl)phenyl)-6-(hydroxymethyl)tetrahydro-2H-pyran-3,4,5-triol] | 6.5 | 365
Cc1ccc([C@@H]2O[C@H](CO)[C@@H](O)[C@H](O)[C@H]2O)cc1Cc1ccc(OCC2(C)OCc3ccccc32)cc1 (single isomer, unassigned) [Compound I-113] | 18.6 | 655
OC[C@H]1O[C@@H](c2ccc(Cl)c(Cc3ccc(OCc4cc5ccccc5o4)c(F)c3)c2)[C@H](O)[C@@H](O)[C@@H]1O [Compound I-11, (2S,3R,4R,5S,6R)-2-(3-(4-(benzofuran-2-ylmethoxy)-3-fluorobenzyl)-4-chlorophenyl)-6-(hydroxymethyl)tetrahydro-2H-pyran-3,4,5-triol] | 23 | 2540
Cc1ccc([C@@H]2O[C@H](CO)[C@@H](O)[C@H](O)[C@H]2O)cc1Cc1ccc(OCC2Cc3ccccc3O2)cc1 (single isomer, unassigned) [Compound I-27] | 4.3 | 396
OC[C@H]1O[C@@H](c2ccc(Cl)c(Cc3ccc(OCc4cc5cc(F)ccc5o4)cc3)c2)[C@H](O)[C@@H](O)[C@@H]1O [Compound I-8, (2S,3R,4R,5S,6R)-2-(4-chloro-3-(4-((5-fluorobenzofuran-2-yl)methoxy)benzyl)phenyl)-6-(hydroxymethyl)tetrahydro-2H-pyran-3,4,5-triol] | 25 | 1440
OC[C@H]1O[C@@H](c2ccc(Cl)c(Cc3ccc(OC[C@@H]4Cc5ccccc5O4)cc3)c2)[C@H](O)[C@@H](O)[C@@H]1O [Compound I-23, (2S,3R,4R,5S,6R)-2-(4-chloro-3-(4-(((S)-2,3-dihydrobenzofuran-2-yl)methoxy)benzyl)phenyl)-6-(hydroxymethyl)tetrahydro-2H-pyran-3,4,5-triol] | 3 | 301
CC1(COc2ccc(Cc3cc([C@@H]4O[C@H](CO)[C@@H](O)[C@H](O)[C@H]4O)ccc3Cl)cc2)OCc2ccccc21 (single isomer, unassigned) [Compound I-116] | 3.9 | 1310
OC[C@H]1O[C@@H](c2ccc(Cl)c(Cc3ccc(OCC4Cc5cc(F)ccc5O4)cc3)c2)[C@H](O)[C@@H](O)[C@@H]1O (stereo partly drawn) [Compound I-32, (2S,3R,4R,5S,6R)-2-(4-chloro-3-(4-((5-fluoro-2,3-dihydrobenzofuran-2-yl)methoxy)benzyl)phenyl)-6-(hydroxymethyl)tetrahydro-2H-pyran-3,4,5-triol] | 6.7 | 472
OC[C@H]1O[C@@H](c2ccc(Cl)c(Cc3ccc(OC[C@@H]4OCc5ccccc54)cc3)c2)[C@H](O)[C@@H](O)[C@@H]1O [Compound I-38, (2S,3R,4R,5S,6R)-2-(4-chloro-3-(4-(((R)-1,3-dihydroisobenzofuran-1-yl)methoxy)benzyl)phenyl)-6-(hydroxymethyl)tetrahydro-2H-pyran-3,4,5-triol] | 1 | 608
